Experimental data published in paper PMC10447463, “Data-mining unveils structure–property–activity correlation of viral infectivity enhancing self-assembling peptides” (Nature Communications, 2023).
“And” between values parts separate entries of the source, which are not always exact repeats. Identical values can stand only once. Like-named read-outs stand apart in the source and are kept apart here.

How the values were obtained:
[1] = Zeta-potential measurement; format: physicochemical; conditions: for Zeta pot. / mV: 1 mg/mL in PBS pH 7.4 from 10 mg/mL DMSO stock, 1 d RT, 60 µL diluted in 600 µL 1 mM KCl, Zetasizer Nano ZS, Smoluchowski, mean of triplicate
Method in brief: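 Charge on peptide aggregates was assessed by electrophoretic mobility in 1 mM KCl, converted per Smoluchowski. Prior aggregation: 1 mg/mL, pH 7.4 PBS, 1 d, RT.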

[2] = Turbidity, derived count rate of scattered light; format: physicochemical; conditions: for Count Rate: derived count rate of scattered light (turbidity); for Log10 Count Rate: turbidity, derived count rate of scattered light, data of Figure 2D
[3] = format: physicochemical; set-up: key to Fibril / Fibril Formation / TEM 2cat / Fibril: 1 = fibrils present; 0 non-fibrillar structures; conditions: for Fibril / Fibril Formation: 1 mg/mL, uranyl acetate stain, qualitative
[4] = β-sheet content by ATR-FT-IR; format: physicochemical; conditions: for b -sheet / %: Fig. S7 panel A, β-sheet content by ATR-FT-IR; for beta sheet: peptides with TEM 2cat 0
Method: For ATR FT–IR spectroscopy measurements, 200 µL of the respective 1 mg/mL PNF solution was lyophilized and the resulting powder used for measurement. All spectra were recorded on a Bruker Tensor 27 spectrometer with a diamond crystal as ATR element (PIKE MiracleTM, spectral resolution 2 cm^-1). Every sample was measured with 64 scans. Data were analyzed with OriginLab software and calculation of β–sheet content was conducted according to a previous report. TEM. For TEM measurements 5 µL of PNF fibrils (1 mg/mL) were placed on copper grids coated with carbon and formvar layer (300 mesh, Plano GmbH). After 10 min incubation time, the grids were staining with 4% uranyl acetate solution for 2.5 min and washed with water. Measurements were performed on a Jeol 1400 electron microscope with 120 kV acceleration voltage. CR Assay. For the determination of the amount of peptide monomer converting into nanostructures the amine reactive dye fluorescamine was used analogous to a previous reported protocol. Briefly, 100 µL of the preformed PNF solution was centrifuged in a Vivaspin 500 tube (3 kDa MWCO) to separate fibers from free peptide monomer (16200 x g, 4 °C, 45 min). The filtrate and 100 μL of the non-filtered PNF sample were lyophilized and dissolved in 30 μL DMSO. 10 μL of the filtrate and non-filtered DMSO samples were submitted in a black UV Star® 384 microliter well–plates (Greiner bio–one) and 3 μL of the fluorescamine solution (10 mg/mL, DMSO) was added to measure the fluorescence enhancement. After 20 min of incubation at RT, fluorescence was recorded on an Infinite® M1000 PRO microplate reader (Tecan) at λem = 470 nm upon excitation at λex = 365 nm with 10 nm bandwidths and multiple reads per well (3×3). Measurements were repeated in triplicates and averaged with standard deviation. All values were calculated as n-fold fluorescence enhancement (DMSO only as a reference was set to 1). The conversion rate CR was defined according to the equation Eq. (3).3 CR=100−100×fluorescenceintensityfiltrate/fluorescenceintensityoriginal[%]

[5] = Turbidity, derived count rate of scattered light; format: physicochemical; conditions: for Count Rate / kcps: derived count rate of scattered light at 633 nm, 173°, from zeta-potential measurement, 0.1 mg/mL in 1 mM KCl after 1 d at 1 mg/mL in PBS, turbidity / microscopic aggregation, mean of triplicate; for Zeta Count Rate: peptides with TEM 2cat 0
Method in brief: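 One-day room-temperature aggregation at 1 mg/mL in PBS (pH 7.4) preceded measurement; samples then went into 1 mM KCl. Triplicates per sample, two independent experiments averaged.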

[6] = zeta-potential of peptide, source data of Figure 2C
[7] = zeta-potential of the peptide assemblies, mean, Figure 3A source data
[8] = Fig S10 panel D, fibril category by TEM
[9] = FigS12 panel A, fibril category by TEM
[10] = TEM, 1 = fibrils present, 0 = non-fibrillar
[11] = TEM, 1 = fibrils present, 0 = non-fibrillar structures
[12] = Log10 of derived count rate of scattered light (turbidity)
[13] = log10 of derived count rate of scattered light (turbidity)
[14] = logarithm of count rate in kcps
[15] = turbidity, Log10 of derived count rate of scattered light, Figure 3A source data
[16] = zeta potential of peptide assemblies
[17] = category: fibrils present or non-fibrillar

Row | Substance | Zeta-Pot. [1] | Zeta-Potential / mV [1, 6] [mV] | Zeta-Potential / mV [1, 7] [mV] | Count Rate [2] | Log10 Count Rate [2] | TEM 2cat [3, 8] | TEM 2cat [3, 9] | Fibril ([3]; FigS12 panel B, TEM) | Fibril / Fibril Formation ([3]; TEM) | Fibril [3, 10] | Fibril [3, 11] | b -sheet / % [4] [%] | Log10 Count Rate [5, 12] | Count Rate / kcps [5] | Log10 Count Rate [5, 13] | Log10 Count Rate [5, 14] | Log10 Count Rate [5, 15] | Zeta-Pot. [1, 16] | Fibril ([3]; Fig S10 panel E) | TEM 2cat [3, 17] | also measured
1 | KIKIQINMWQRGD | 1.69 | -0.495 | 1.69 | 2783 | 3.445 | 0 | 0 | 0 | 0 | 0 | 0 | 47.72 | 3.445 | 2783 kcps | 3.445 | 3.4 | 3.445 | – | – | – | Zeta pot. / mV [1]: 1.7 mV; ß-sheet / % ([4]; ATR-FT-IR of lyophilised 1 mg/mL PNF solution, peak integral ratio 1625-1635 cm-1, measured once): 48%
2 | RGDSGGGGGGKIKIQIC | – | 16.7 | 16.7 | 10416.16667 | 4.018 | 1 | – | – | 1 | 1 | 1 | 40.62 | 4.018 | 10416 kcps | 4.018 | 4.018 | 4.018 | 16.7 | 1 | 1 | –
3 | CKIKQII | – | 5.568 | -3.83 | 74.6 | 1.873 | 1 | 1 | 1 | 1 | 1 | 1 | 25 | 1.873 | 74 ± 27 kcps and 75 kcps | 1.873 | 1.873 | 1.873 | -3.83 | 1 | – | Zeta pot. / mV [1]: -3.83 mV
4 | ILKNLSRSRKIKIQINMWQ | 19.2 | 17.9 | 19.2 | 306.5 | 2.486 | 1 | – | – | 1 | 1 | 1 | 39.13 | 2.486 | 307 kcps | 2.486 | – | 2.486 | – | – | 1 | –
5 | HHHHKIKIKIKIYYYY | – | 12.88 | 13.2 | 12792.53333 | 4.107 | 0 | – | – | 0 | 0 | 0 | 53.27 | 4.107 | 12793 kcps | 4.107 | 4.107 | 4.107 | 13.2 | – | 0 | beta sheet [4]: 53; Zeta Count Rate [5]: 12793 kcp
6 | KVKVQVVV | – | 1.657 | 0.15 | 163.1 | 2.213 | 1 | 1 | 1 | 1 | 1 | 1 | 45.8125 | 2.213 | 163 kcps | 2.213 | – | 2.213 | 0.147 | – | – | –
7 | KIKIQINMWWWQ | 9.45 | 9.633 | 9.45 | 7596.3 | 3.8806 | 0 | – | – | 0 | 0 | 0 | 47.92 | 3.8806 | 7596 kcps | 3.8806 | – | 3.8806 | – | – | 0 | beta sheet [4]: 48; Zeta Count Rate [5]: 7596 kcp
8 | KLKLKLQL | – | 8.477 | 8.39 | 42.87 | 1.632 | 1 | 1 | 1 | 1 | 1 | 1 | 42.3363 | 1.632 | 43 kcps | 1.632 | – | 1.632 | 8.39 | – | – | –
9 | RGDSKIKIQIC | – | 15.65 | 15.1 | 2699 | 3.431 | 1 | – | – | 1 | 1 | 1 | 38.56 | 3.431 | 2699 kcps | 3.431 | – | 3.431 | 15.1 | 1 | 1 | –
